According to paper PMC4147378 (Bioorganic & medicinal chemistry, 2014):
Entries after “also recorded” stand apart in the source; their conditions may differ.

Legend:
[1] = biological target: T1, GST-hFXR-LBD (Homo sapiens, UniProt Q96RI1); assay: FXR TR-FRET binding assay; conditions: Table 3; ratio fits the TR-FRET binding IC50
T1 sequence (Q96RI1 262-486 limits assumed): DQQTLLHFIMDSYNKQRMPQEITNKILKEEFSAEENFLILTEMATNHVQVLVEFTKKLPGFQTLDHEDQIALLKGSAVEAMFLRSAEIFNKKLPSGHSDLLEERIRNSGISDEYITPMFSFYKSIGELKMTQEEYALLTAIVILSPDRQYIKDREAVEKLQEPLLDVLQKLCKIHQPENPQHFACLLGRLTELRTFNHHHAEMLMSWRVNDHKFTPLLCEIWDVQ

[2] = biological target: T2, FXR (Homo sapiens, UniProt Q96RI1); assay: GeneBLAzer FXR cell-based agonistic; conditions: compound alone, without GW4064; data not shown
T2 sequence (Q96RI1 262-486 limits assumed): T1 sequence (Q96RI1 262-486 limits assumed)

[3] = system: GeneBLAzer FXR-UAS-bla HEK 293T cells; assay: Cytotoxicity assay in GeneBLAzer FXR cells; assay type: cell-based, human
[4] = biological target: T2, FXR; assay: GeneBLAzer FXR cell-based antagonistic; conditions: data not shown

Row | SMILES | activity against FXR at 1 µM [4] | also measured
1 | Cc1ccc(-c2nn(CC3CC3)cc2C(=O)Nc2ccc(C)c(S(=O)(=O)N3CCOCC3)c2)cc1 [Compound 4i, 1-(Cyclopropylmethyl)-N-(4-methyl-3-(morpholinosulfonyl)phenyl)-3-(p-tolyl)-1H-pyrazole-4-carboxamide] | – | fold decreased activity for FXR as compared to E16 [1]: 2 fold
2 | COc1cccc(Cn2cc(C(=O)Nc3ccc(C)c(S(=O)(=O)N4CCOCC4)c3)c(-c3ccc(C)cc3)n2)c1 [Compound 4j, 1-(3-Methoxybenzyl)-N-(4-methyl-3-(morpholinosulfonyl)phenyl)-3-(p-tolyl)-1H-pyrazole-4-carboxamide] | – | FXR agonistic activity [2]: no detectable; also recorded: no FXR agonistic activity; also recorded: does not have any; cytotoxicity [3]: no detectable; also recorded: no cytotoxicity; also recorded: does not have any
3 | Cc1ccc(-c2nn(C(C)C)cc2C(=O)N(C)c2ccc(C)c(S(=O)(=O)N3CCOCC3)c2)cc1 [Compound 8a, 1-Isopropyl-N-methyl-N-(4-methyl-3-(morpholinosulfonyl)phenyl)-3-(p-tolyl)-1H-pyrazole-4-carboxamide] | essentially inactive | –
4 | COc1cccc(Cn2cc(C(=O)N(C)c3ccc(C)c(S(=O)(=O)N4CCOCC4)c3)c(C(C)C)n2)c1 [Compound 8b, 3-Isopropyl-1-(3-methoxybenzyl)-N-methyl-N-(4-methyl-3-(morpholinosulfonyl)phenyl)-1H-pyrazole-4-carboxamide] | essentially inactive | –
5 | COc1cccc(Cn2cc(C(=O)N(C)c3ccc(C)c(S(=O)(=O)N4CCOCC4)c3)c(-c3cccc(OC)c3)n2)c1 [Compound 8c, 1-(3-Methoxybenzyl)-3-(3-methoxyphenyl)-N-methyl-N-(4-methyl-3-(morpholinosulfonyl)phenyl)-1H-pyrazole-4-carboxamide] | essentially inactive | –
